Literature values in patent publication US20190358249A1, “Injectable Combination Products Of Fosaprepitant And 5-HT3 Blocker” (Navinta III Inc, priority 2018, published 2019).
Entries after “also recorded” stand apart in the source; their conditions may differ. Counter-ions that a name gives are not always drawn. Blank lines part the entries; values can stand above or below the compound they belong to.

Legend:
[1] = 1% w/v in water
[2] = precipitates when the pH is above the range
[3] = test system: subjects receiving highly emetogenic cisplatin-based chemotherapy; conditions: added to ondansetron and dexamethasone

- solubility in aqueous media (across the physiological pH range): very soluble
- solubility in water (in words) (water): freely soluble
SMILES: O=C1c2cccc3c2[C@H](CCC3)CN1[C@@H]1CN2CCC1CC2 [Palonosetron Hydrochloride]

- pH of a 1% w/v solution in water [1]: about 4.6
- solubility in saline (saline): 0.8%
- solubility in water (water): 3.2%
- pH above which free base precipitates [2]: 5.7-7
SMILES: Cc1nccn1CC1CCc2c(c3ccccc3n2C)C1=O (stereo not drawn) [Ondansetron]

SMILES: C[C@@H](O[C@H]1OCCN(Cc2n[nH]c(=O)[nH]2)[C@H]1c1ccc(F)cc1)c1cc(C(F)(F)F)cc(C(F)(F)F)c1 [Aprepitant]
- solubility in water (in words) (water): very low solubility; also recorded: minimal solubility; also recorded: practically insoluble
- protection against CINV [3]: consistently superior protection

- solubility in water (in words) (water): good solubility
SMILES: C[C@@H](O[C@H]1OCCN(Cc2nc(O)n(P(=O)(O)O)n2)[C@H]1c1ccc(F)cc1)c1cc(C(F)(F)F)cc(C(F)(F)F)c1 [Fosaprepitant]
